Patent US10471054B2, “CDK1 inhibitors of acetyl chrysin mannich base derivatives, synthesis and use thereof” (priority 2016, dated 2019)
Values after ≈ are worked out from the molar mass of the structure shown. Like-named read-outs stand apart in the source and are kept apart here. One block for each molecule: values may come before it.

Legend:
[1] = Solubility in Octanol, water and pH media; assay type: physicochemical; conditions: 37° C.
Protocol: (§1) The solubility and log P of acetyl ChrysinMannich base derivatives see TABLE 1.
(§2) CH-j is pKa 5.3, log P 1.63 in Octanol/Water at 37° C. […] (BA-j 77m/ml). CH-j belongs to BCS II (low solubility, high permeability) and solubility presents the pH dependence. […] CH-j is a pH dependent fast release. […] It is speculated that CH-j has more appropriate log P and solubility with more likely entering tissue cells than others solubility acetyl Chrysin Mannich base derivatives.
(§3) (about 20 times BA-f 277 μg/ml) and 564 μg/ml in water at 37° C. (about 1000 times BA-f 0.53m/ml). CH-f is BCS I (high solubility and permeability) and solubility presents the pH dependence. It is speculated that CH-f has more appropriate log P and solubility with entering systemic (blood system and tissue cells) than others solubility acetyl Chrysin Mannich base derivatives.

pKa = assay type: physicochemical
Protocol: as §2, §3

log P in Octanol/Water = assay type: physicochemical; conditions: octanol/water, Octanol/Water at 37° C.
Protocol: as §1, §2, §3

Hep G2 [2] = experiment: NaOCl level, BODTPY-OCl fluorescent probe imaging; assay type: cell-based; conditions: CH-j 40 μM or HCPT 5 μM for 4 h
Protocol: In vitro cultured Hep G2 was given by BODTPY-OCl selective fluorescent probe 5 μM for 0.5 h, added CH-j 40 μM or HCPT 5 μM for 4 h, and performed fluorescence imaging.

BGC-823 [3] = experiment: Annexin V-FITC-PI double fluorescence, apoptosis and necrosis; assay type: cell-based; conditions: 24 h
Description: There is a series of morphological characteristic changes in the apoptosis of cells, in which the change of the plasma membrane is one of the characteristics of early apoptosis. The cytoplasm is flipped from the inside of the cytoplasm to the outer surface of the cell when the cell apoptosis, Annexin V is a Ca^++ dependent phospholipid binding protein, which has a high affinity with phospholipid-peptide-serine, which can be combined with the phospholipid peptide specificity that is exposed to the extracellular cells. However, cytoplasm transfer to cell membrane is not unique to apoptosis, but also can occur in cell necrosis. The difference between the two cell death modes is that the cell membrane is intact in the initial stage of apoptosis, and the integrity of the cell membrane in its early stage is destroyed. PI is a nucleic acid dye that cannot pass through the intact cell membrane, but in the cell and necrotic cells in the middle and late stage of apoptosis, the PI can dye the nucleus through the cell membrane. Annexin V-FITC-PI was used to detect apoptosis and necrotic cell ratio on flow cytometry.
A relatively small increase in apoptotic cells is increased.
FIG. 3-3 Annexin V-FITC/PI staining results for BGC-823.

[4] = cited from earlier work
[5] = oral, liver first pass effect; cited from earlier work
[6] = test system: 5 cancers cells (MCF-7, H-460, BGC-823, PC-3, Hep G2); experiment: Anti-cancer cells proliferation activity, average of 5 cancer cells; assay type: cell-based; conditions: average of 5 cancer cells
Description: (§4) Anti-cancer cells proliferationactivity of in vitro CH-j and CH-f were shown in TABLE 2 for the results of the screening of 5 cancers cells.

BGC-823 [7] = experiment: Anti-cancer cells proliferation activity (MTT, 48 h); assay type: cell-based; conditions: Homo sapiens, BGC-823, MTT
Protocol: as §4
FIG. 2: The initial screening results of the anticancer activity of BGC-823 (MTT, for 48 h), and X-coordinate is the drug concentration (MTT, for 48 h), and Y-coordinate the cell survival rate (%) in vitro.

[8] = test system: PBMCs, activated lymphocytes, human normal Liver cells; experiment: H2O2 level in blood and normal cells, PF1-H2O2 fluorescent probe; assay type: cell-based; conditions: CH-j: PBMCs and activated lymphocytes; BA-j: activated lymphocyte
Protocol: The cells are cancer cells (MCF-7, GBC-823, Hep G2) and normal cells (Liver, COS-7, PBMCs). According to the literature [Scientific Reports, 2015, 5: 13626; Anti-cancer Agents in Medicinal Chemistry, 2016, 16: 914-924.], in vitro cultured cells was given to CH-j 25 μM for 3.5 h, added PF1-H2O2 selective fluorescence probe 10 μM for 0.5 h and detected the concentration of H2O2 in cells, and performed fluorescence imaging by results shown in FIG. 1.
FIG. 1-3, FIG. 1-4, The fluorescence imaging by PF1-H2O2 10 μM is that CH-j […] for 4 h affected the level of H2O2 in MCF-7, GBC-823, Hep G2 and Liver.
FIG. 1-3: CH-j/BA-j affects the levels of H2O2 in blood cells, X-coordinate is the concentration of CH-j/BA-j concentration (μM), and Y-coordinate the intracellular levels of H2O2 (μM) for 4 h with PF1-H2O2 10 μM by Fluorescence Microplater Reader (488 nm/525 nm).

[9] = Pharmacokinetics by oral in monkey (urine drug concentration-time curve); assay type: in vivo; conditions: rhesus, monkey (n = 6), 3 mg/kg
CDK1 = CDK1 (Homo sapiens, UniProt P06493); experiment: CDK1 inhibition activity; assay type: biochemical; conditions: read-out: inhibiting CDK1 CC50
CDK1, sequence (P06493 whole entry, species assumed): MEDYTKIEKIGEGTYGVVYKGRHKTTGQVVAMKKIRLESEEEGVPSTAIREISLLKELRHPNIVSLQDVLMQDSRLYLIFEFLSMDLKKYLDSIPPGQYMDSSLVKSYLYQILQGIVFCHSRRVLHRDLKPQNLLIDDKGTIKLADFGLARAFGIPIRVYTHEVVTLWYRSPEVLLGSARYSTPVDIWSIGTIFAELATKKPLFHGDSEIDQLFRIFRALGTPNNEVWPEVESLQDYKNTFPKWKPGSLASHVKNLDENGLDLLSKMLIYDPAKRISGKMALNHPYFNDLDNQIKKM
CDK1, sequence (P14635 whole entry partner, species assumed): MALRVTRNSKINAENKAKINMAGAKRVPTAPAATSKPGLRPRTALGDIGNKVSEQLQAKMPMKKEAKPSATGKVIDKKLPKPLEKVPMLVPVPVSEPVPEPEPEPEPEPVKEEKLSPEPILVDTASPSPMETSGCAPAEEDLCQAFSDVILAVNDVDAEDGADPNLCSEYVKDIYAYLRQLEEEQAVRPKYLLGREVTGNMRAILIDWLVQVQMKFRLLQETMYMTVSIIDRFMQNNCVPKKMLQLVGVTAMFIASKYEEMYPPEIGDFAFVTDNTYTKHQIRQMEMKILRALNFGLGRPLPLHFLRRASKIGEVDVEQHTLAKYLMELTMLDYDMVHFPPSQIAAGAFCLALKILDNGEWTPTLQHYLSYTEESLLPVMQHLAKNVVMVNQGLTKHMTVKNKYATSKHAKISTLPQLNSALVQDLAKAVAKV

[10] = Tissue distribution in rat, 2 h; assay type: in vivo; conditions: rat
Protocol: The distribution results of CH-j tissue distribution were shown in FIG. 6, when CH-j 100 mg/kg rat by venous intravenous (i.v.) or oral (p.o.) 2 h. […] CH-j by oral in the stomach concentration of the large, about 2 time higher than other tissues. […] Compared with the intravenous administration, the oral administration was completely absorbed and the bioavailability was close to 100%.
FIG. 6: 2 h distribution of the drug (100 mg/kg) by CH-j rats: Y-coordinate is the concentration of CH-j (μg/g), by intravenous (i.v.), by oral (p.o.).

plasma proteins = experiment: Protein binding rate and reversible binding rate; assay type: in vitro ADME
Protocol: (§5) The combination of drugs and plasma proteins is usually reversible, and the affinity strength is determined by the reversible binding rate of the drug-protein complex. Only free drugs can spread to the tissue through the lipid membrane. By modifying the structure of the drug, the effect of the drug on the target site can be improved by improving the reversible binding rate of the drug-protein complex.
(§6) The acidic part of polyphenol hydroxyl group is combined with lysine alkaline site in albumin structure. The protein binding rate and reversible binding rate of CH-j see TABLE 2.

[11] = Protein binding rate and reversible binding rate; assay type: in vitro ADME; conditions: plasma proteins
Protocol: as §5, §6

H-460 = experiment: Anti-cancer cells proliferation activity (MTT, 48 h); assay type: cell-based; conditions: Homo sapiens, NCI-H460, H-460, MTT
Description: as §4

Hep G2 [12] = experiment: as above; assay type: cell-based; conditions: Homo sapiens, HepG2
Description: as §4

MCF-7 [13] = experiment: as above; assay type: cell-based; conditions: Homo sapiens, MCF7, MCF-7, MTT
Description: as §4

PC-3 = experiment: as above; assay type: cell-based; conditions: Homo sapiens, PC-3, MTT
Description: as §4

[14] = Pharmacokinetics by oral in monkey (urine drug concentration-time curve); assay type: in vivo; conditions: monkey (n = 6), 3 mg/kg in Table 4, 5 mg/kg in text
Protocol: Chromatographic conditions and the system applies: with C18 chromatographic column (acid the tall secretory effect, 5 μm, 4.6*150 mm), in acetonitrile-methanol-water-mesylate (25:20:55:0.15) as mobile phase, detection UV 283 nm, the velocity 1 ml/min, and the sample volume 20 μl. The theoretical plate number is not less than 2000 according to CH-j peak.
Sample solution: after the macaques were drugged, the catheter was inserted. The urine by oral CH-j 5 mg/kg is collected, added the methanol at 1:4 (v:v), centrifuge and remove the liquid to measure. Control solution is CH-j methanol solution 5 μg/ml. The log P of CH-j is larger, the fat solubility strong, and absorption distribution in the body very rapid, the urine drug concentration-time curve consistent with the typical two-compartment model. Tmax1, 1.3 h, Cmax1 is […]. […] The apparent distribution volume (Vd) 42 L, mainly distributed in body fluid (BA-j Vd 12.6 L, mainly distributed in blood. See Fitoterapia, 2015, 107: 36-34)
FIG. 5: The concentration of urine drug concentration-time curve in monkey (n=6) by CH-j oral 5 mg/kg, X-coordinate is oral CH-j time (h) and Y-coordinate is the concentration of CH-j (μM).

MCF-7 [15] = experiment: Autophagy in MCF-7; assay type: cell-based; conditions: 50 μM for 9 h and 24 h
[16] = in vivo; cited from earlier work
[17] = organic solvent or mixture, Octanol, read-out: Solubility in Octanol
[18] = water, read-out: Solubility in H2O
[19] = water, text values of BA-j and BA-f, read-out: Solubility in water

SMILES: CC[C@@]1(O)C(=O)OCc2c1cc1n(c2=O)Cc2cc3cc(O)ccc3nc2-1 [HCPT, reference compound]
NaOCl, yellow green fluorescence (Hep G2 [2]): present fluorescence
Apoptosis and necrosis by Annexin V-FITC-PI (BGC-823 [3]): induce apoptosis at low doses, and high dose can cause the inflammatory necrosis of early cells

SMILES: O=c1cc(-c2ccccc2)oc2c(CN3CCC(O)CC3)c(O)c(O)c(O)c12 [BA-j, 5,6,7-trihydroxy-8-(4-hydroxy-piperidin-1-ylmethyl)-2-phenyl-chromen-4-one, reference compound]
IC50 (BGC-823 [7]): 12.3 ± 1.73 µM
Dose dependence of H2O2 level [8]: significant dose-dependent manner, with mass apoptosis and without necrosis
AUC(0-inf) [9]: 71.5 µM·h
V d ([4]; BA-j, see Fitoterapia, 2015): 12.6 L
CDK1 50% inhibitory concentration (CDK1): 300 nM
solubility [1, 17]: 0.377 mg/mL (≈ 983 µM)
solubility [1, 19]: 0.077 mg/mL (≈ 201 µM)
Detection of prototype drug in blood, urine, tissues [10]: prototype drug can not be detected in the tissues
pKa (pKa): 5.5
logP (log P in Octanol/Water): 0.69
Reversie binding rate AV (plasma proteins; average of 3 concentrations): 20.1%
Reversie binding rate (plasma proteins; drug concentration 12.5 μg/ml): 19.1%
Reversie binding rate (plasma proteins; drug concentration 25 μg/ml): 21.0%
Reversie binding rate (plasma proteins; drug concentration 50 μg/ml): 20.2%
fraction unbound ([11]; average of 3 concentrations, read-out: Protein binding rate AV (converted)): 0.082
fraction unbound at 12.5 μg/ml ([11]; drug concentration 12.5 μg/ml): 0.067
fraction unbound at 25 μg/ml ([11]; drug concentration 25 μg/ml): 0.075
fraction unbound at 50 μg/ml ([11]; drug concentration 50 μg/ml): 0.104
IC50 (H-460): 13.7 ± 1.83 µM
IC50 (Hep G2 [12]): 15.7 ± 1.3 µM
IC50 (MCF-7 [13]): 10.6 ± 0.3 µM
IC50 (PC-3): 12.8 ± 2.06 µM
Glucose aldehyde acid metabolism [5]: < 5%
V d ([14]; oral): 12.6 L
t1/2β ([14]; oral): 4.2 h
Tmax ([14]; rhesus, monkey, urine, po, read-out: T max (Tmax1)): 2 h
Cmax ([14]; rhesus, urine, oral): 25.4 µM
IC50 [6]: 4.7 mg/L
IC50 ([6]; MTT, 48 h): 12.3 µM
Autophagy (MCF-7 [15]): without

SMILES: CN1CCN(Cc2c(O)c(O)c(O)c3c(=O)cc(-c4ccccc4)oc23)CC1 [BA-f, 5,6,7-trihydroxy-8-(4-methylpiperazin-1-ylmethyl)-2-phenyl-chromen-4-one, reference compound]
solubility [1, 17]: 0.277 mg/mL (≈ 724 µM)
solubility [1, 19]: 0.00053 mg/mL (≈ 1.39 µM)
pKa (pKa): 5.6
logP (log P in Octanol/Water): 1.7

SMILES: CN1CC[C@H](c2c(O)cc(O)c3c(=O)cc(-c4ccccc4Cl)oc23)[C@H](O)C1 [Flavopiridol]
Intravenous drip steady plasma concentration [16]: 0.27 µM

Second part, led by results:

solubility [1, 17]: 2.55 mg/mL (≈ 6230 µM)
solubility [1, 18]: 0.0434 mg/mL (≈ 106 µM)
pKa (pKa): 5.4
logP (log P in Octanol/Water): 1.77
SMILES: CC(=O)c1c(O)c(CN2CCCC2CO)c2oc(-c3ccccc3)cc(=O)c2c1O (stereo not drawn) [CH-h, 6-Acetyl-5,7-dihydroxy-8-(2-hydroxymethyl-pyrrolidin-1-ylmethyl)-2-phenyl-chromen-4-one]

solubility [1, 17]: 0.58 mg/mL (≈ 1470 µM)
solubility [1, 18]: 0.0014 mg/mL (≈ 3.54 µM)
pKa (pKa): 5.1
logP (log P in Octanol/Water): 2.62
SMILES: CC(=O)c1c(O)c(CN2CCOCC2)c2oc(-c3ccccc3)cc(=O)c2c1O [CH-d, 6-Acetyl-5,7-dihydroxy-8-morpholin-4-ylmethyl-2-phenyl-chromen-4-one]

IC50 ([6]; MTT, 48 h): 30 µM
SMILES: O=c1cc(-c2ccccc2)oc2cc(O)cc(O)c12 [Chrysin]
Maximum drug concentration ([4]; Chrysin comparison value): 0.64 µM
Glucose aldehyde acid metabolism [5]: > 95%

solubility [1, 17]: 0.12 mg/mL (≈ 292 µM)
solubility [1, 18]: 0.0001 mg/mL (≈ 0.243 µM)
pKa (pKa): 4.8
logP (log P in Octanol/Water): 3.08
SMILES: CC(=O)c1c(O)c(CN2CCSCC2)c2oc(-c3ccccc3)cc(=O)c2c1O [CH-e, 6-Acetyl-5,7-dihydroxy-2-phenyl-8-(thiomorpholin-4-ylmethyl)-2-phenyl-chromen-4-one]

solubility [1, 17]: 0.733 mg/mL (≈ 1670 µM)
solubility [1, 18]: 0.0062 mg/mL (≈ 14.1 µM)
pKa (pKa): 4.8
logP (log P in Octanol/Water): 2.07
SMILES: CC(=O)c1c(O)c(CN2CCN(CCO)CC2)c2oc(-c3ccccc3)cc(=O)c2c1O [CH-i, 6-Acetyl-5,7-dihydroxy-8-[4-(2-hydroxy-ethyl)-piperazin-1-ylmethyl]-2-phenyl-chromen-4-one]

solubility [1, 17]: 3.41 mg/mL (≈ 8330 µM)
solubility [1, 18]: 0.052 mg/mL (≈ 127 µM)
pKa (pKa): 4.5
logP (log P in Octanol/Water): 1.82
SMILES: CC(=O)c1c(O)c(CN2CCC(O)CC2)c(O)c2c(=O)cc(-c3ccccc3)oc12 [is-CH-j, 8-Acetyl-5,7-dihydroxy-6-(4-hydroxy-piperidin-1-ylmethyl)-2-phenyl-chromen-4-one]
